Where two headings read alike, the source gives them in different places.
Legend:
[1] = Hepatocyte stability (mouse); assay type: in vitro ADME; conditions: test compound 3 μM, 60 min; for hepatocyte CLint at 3 μM: mouse, cryopreserved pooled hepatocytes in suspension, read-out: Mouse heps Clint
Description: (iii) Hepatocyte Stability (Human, Mouse, Rat or Dog)
Test compound (3 μM) is incubated with cryopreserved hepatocytes in suspension. Samples are removed at 6 time points over the course of a 60 min experiment and test compound is analysed by LC-MS/MS. An intrinsic clearance value (CLint) with standard error and half-life (t %) are calculated. Cryopreserved pooled hepatocytes are stored in liquid nitrogen prior to use. […] The final incubation volume is 500 μL. A control incubation is included for each compound tested where lysed cells are added instead of viable cells. Two control compounds are included with each species.
The reactions are stopped by transferring 50 μL of incubate to 100 μL methanol containing internal standard at the appropriate time points. The control (lysed cells) is incubated for 60 min only. The termination plates are centrifuged at 2500 rpm at 4° C. for 30 min to precipitate the protein. Following protein precipitation, the sample supernatants are combined in cassettes of up to 4 compounds and analysed using generic LC-MS/MS conditions. From a plot of In peak area ratio (compound peak area/internal standard peak area) against time, the gradient of the line is determined. Subsequently, half-life (t %) and intrinsic clearance (CLint) are calculated using the equations below: […]

hGPR88 receptor = hGPR88 receptor (Homo sapiens, UniProt Q9GZN0); experiment: hGPR88-HEK cAMP accumulation assay; conditions: HEK-293 cells expressing human recombinant GPR88, forskolin 200 nM, High/Medium/Low bands
Chain of hGPR88 receptor (Q9GZN0 whole entry): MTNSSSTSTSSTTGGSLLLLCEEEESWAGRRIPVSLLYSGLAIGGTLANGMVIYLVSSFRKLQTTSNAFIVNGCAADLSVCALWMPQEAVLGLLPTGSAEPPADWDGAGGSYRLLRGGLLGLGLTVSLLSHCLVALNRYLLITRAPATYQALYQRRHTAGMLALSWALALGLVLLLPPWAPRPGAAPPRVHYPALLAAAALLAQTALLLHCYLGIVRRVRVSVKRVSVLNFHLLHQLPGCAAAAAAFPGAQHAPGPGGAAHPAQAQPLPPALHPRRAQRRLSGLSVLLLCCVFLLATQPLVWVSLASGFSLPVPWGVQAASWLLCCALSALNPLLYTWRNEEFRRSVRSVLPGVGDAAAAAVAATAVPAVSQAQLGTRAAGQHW

[2] = biological target: T1, dopamine uptake transporter (rat DAT) (Rattus norvegicus, UniProt P23977); experiment: Dopamine transporter uptake assay; assay type: biochemical; conditions: rat striatum synaptosomes, [3H]dopamine
T1 construct: is determined in rat striatum synaptosomes following [^3H]dopamine scintillation counting; from tissue; host or cells: rat striatum synaptosomes
T1 sequence (P23977 whole entry): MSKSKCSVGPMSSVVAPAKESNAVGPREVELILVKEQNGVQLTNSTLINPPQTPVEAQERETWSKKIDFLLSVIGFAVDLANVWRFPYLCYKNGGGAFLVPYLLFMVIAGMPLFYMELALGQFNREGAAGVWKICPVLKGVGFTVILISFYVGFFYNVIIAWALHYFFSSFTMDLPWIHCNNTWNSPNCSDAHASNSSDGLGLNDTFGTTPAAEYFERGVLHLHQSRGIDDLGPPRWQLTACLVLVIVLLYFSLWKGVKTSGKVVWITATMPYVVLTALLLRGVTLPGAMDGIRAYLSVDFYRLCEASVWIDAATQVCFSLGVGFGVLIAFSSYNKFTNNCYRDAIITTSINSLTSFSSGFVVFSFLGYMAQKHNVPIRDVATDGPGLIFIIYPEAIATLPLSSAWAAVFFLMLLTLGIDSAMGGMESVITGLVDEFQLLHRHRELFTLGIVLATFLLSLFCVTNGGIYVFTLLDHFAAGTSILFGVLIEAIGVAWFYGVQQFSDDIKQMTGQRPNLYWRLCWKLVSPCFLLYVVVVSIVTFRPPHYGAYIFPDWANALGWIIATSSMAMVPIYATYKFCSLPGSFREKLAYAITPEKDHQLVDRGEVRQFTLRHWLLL

hepatocyte CLint at 3 μM [1] [µL/min/1e6 cells]	EC50 (hGPR88 receptor; GRP88 agonist activity (EC50)) [nM]	Inhibition of dopamine uptake transporter (% inhibition at 10 μM compound) ([2]; 10 µM) [% inhibition]	Mouse heps Clint ([1]; mouse cryopreserved hepatocytes) [μL/min/10^6 cells]	EC50 (hGPR88 receptor; read-out: GRP88 agonist activity (EC50)) [nM]	Inhibition of dopamine uptake transporter (% inhibition at 10 μM compound) [2] [% inhibition]	Compound
65	< 1000	11				COCc1ccc(-c2ccc(NC(=O)C3CC3c3ccccn3)cc2)cc1 (racemic) [Example 1, (rac-trans)-N-(4′-(methoxymethyl)-[1,1′-biphenyl]-4-yl)-2-(pyridin-2-yl)cyclo propane-1-carboxamide]
		7	30	1000 to 5000		CCOc1ccc(-c2ccc(NC(=O)C3CC3c3ccccn3)cc2)cn1 (racemic) [Example 76, (rac-trans)-N-(4-(6-ethoxypyridin-3-yl)phenyl)-2-(pyridin-2-yl)cyclopropane-1-carboxamide]
14	< 1000				12	CS(=O)(=O)c1ccc(-c2ccc(NC(=O)C3CC3c3ccccn3)cc2)cc1 (racemic) [Example 85, (rac-trans)-N-(4′-(methylsulfonyl)-[1,1′-biphenyl]-4-yl)-2-(pyridin-2-yl)cyclopropane-1-carboxamide]
31	< 1000				1	O=C(Nc1ccc(-c2ccc(OC3CC3)cc2)cc1)C1CC1c1ccccn1 (racemic) [Example 87, (rac-trans)-N-(4′-cyclopropoxy-[1,1′-biphenyl]-4-yl)-2-(pyridin-2-yl)cyclopropane-1-carboxamide]
22	1000 to 5000				14	COCc1ccc(C23CC(NC(=O)C4CC4c4ccccn4)(C2)C3)cc1 (racemic) [Example 111, (rac-trans)-N-(3-(4-(methoxymethyl)phenyl)bicyclo[1.1.1]pentan-1-yl)-2-(pyridin-2-yl)cyclopropane-1-carboxamide]
54	< 1000				3	COCc1ccc(-c2ccc(NC(=O)C(C)(C)Oc3ccc(F)cc3)cc2)cc1 [Example 2, 2-(4-fluorophenoxy)-N-(4′-(methoxymethyl)-[1,1′-biphenyl]-4-yl)-2-methylpropanamide]
70	< 1000				7	CCOc1ccc(-c2ccc(NC(=O)C(C)(C)Oc3ccc(F)cc3)cc2)cn1 [Example 26, N-(4-(6-ethoxypyridin-3-yl)phenyl)-2-(4-fluorophenoxy)-2-methylpropanamide]
76	< 1000				52	COCc1ccc(-c2ccc3c(c2)CCCN3C(=O)C(C)(C)Oc2ccc(F)cc2)cc1 [Example 31, 2-(4-fluorophenoxy)-1-(6-(4-(methoxymethyl)phenyl)-3,4-dihydroquinolin-1(2H)-yl)-2-methylpropan-1-one]

— patent US20240132450A1, “MODULATORS OF G PROTEIN-COUPLED RECEPTOR 88” (ACADIA Pharmaceuticals Inc., priority 2020, published 2024)
